Measured values taken from ChEMBL document CHEMBL1157148, “Synthesis of eudistomin D analogues and its effects on adenosine receptors” (Bioorg Med Chem, 2008).
pKi: −log10 of the molar value.

Legend:
Adenosine receptor A1 = biological target: T1, Adenosine receptor A1 (Homo sapiens, UniProt P30542); assay: Displacement of [3H]DPCPX from human recombinant adenosine A1 receptor expressed in HEK293T cells; assay type: cell-based, HEK-293T
T1 sequence (P30542 whole entry): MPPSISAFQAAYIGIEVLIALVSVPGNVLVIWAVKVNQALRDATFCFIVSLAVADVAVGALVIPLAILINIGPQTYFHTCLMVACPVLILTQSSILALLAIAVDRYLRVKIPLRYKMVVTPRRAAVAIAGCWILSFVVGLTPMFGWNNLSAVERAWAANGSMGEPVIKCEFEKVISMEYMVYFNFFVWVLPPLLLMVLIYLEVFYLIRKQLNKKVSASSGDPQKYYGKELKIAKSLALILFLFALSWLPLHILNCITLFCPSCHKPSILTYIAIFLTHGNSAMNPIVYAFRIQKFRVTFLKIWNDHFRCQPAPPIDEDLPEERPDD

Adenosine receptor A3 = biological target: T2, Adenosine receptor A3 (Homo sapiens, UniProt P0DMS8); assay: Displacement of [3H]NECA from human recombinant adenosine A3 receptor expressed in HEK293T cells; assay type: cell-based, HEK-293T
T2 sequence (P0DMS8 whole entry): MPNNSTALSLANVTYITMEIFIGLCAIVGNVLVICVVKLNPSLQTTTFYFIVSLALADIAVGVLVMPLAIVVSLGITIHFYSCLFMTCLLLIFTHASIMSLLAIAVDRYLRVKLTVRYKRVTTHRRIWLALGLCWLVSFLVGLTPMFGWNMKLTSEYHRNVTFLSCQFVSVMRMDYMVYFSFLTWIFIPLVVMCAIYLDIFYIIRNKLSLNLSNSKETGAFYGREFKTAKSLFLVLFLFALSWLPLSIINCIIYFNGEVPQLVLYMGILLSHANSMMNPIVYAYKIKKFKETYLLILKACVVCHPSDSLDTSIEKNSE

Adenosine receptor A2a = Adenosine receptor A2a (Homo sapiens, UniProt P29274); assay: biochemical
Adenosine receptor A2a, sequence (P29274 whole entry): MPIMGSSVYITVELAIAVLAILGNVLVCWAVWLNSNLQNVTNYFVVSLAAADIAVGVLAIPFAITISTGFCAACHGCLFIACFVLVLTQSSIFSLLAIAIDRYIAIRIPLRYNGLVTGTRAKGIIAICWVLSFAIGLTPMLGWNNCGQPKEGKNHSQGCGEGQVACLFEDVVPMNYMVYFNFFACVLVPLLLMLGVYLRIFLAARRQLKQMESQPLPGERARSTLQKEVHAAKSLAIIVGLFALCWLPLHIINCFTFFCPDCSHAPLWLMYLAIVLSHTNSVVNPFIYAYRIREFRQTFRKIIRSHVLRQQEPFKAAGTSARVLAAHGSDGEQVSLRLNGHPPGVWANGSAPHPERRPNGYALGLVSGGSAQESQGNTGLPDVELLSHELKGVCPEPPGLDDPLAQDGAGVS
Description: Displacement of [3H]CGS21680 from human recombinant adenosine A2A receptor expressed in HEK293T cells

SMILES	pKi (Adenosine receptor A1)	pKi (Adenosine receptor A3)	pKi (Adenosine receptor A2a)
Cc1cc2[nH]c3cnccc3c2c(C)c1O	< 4.00	4.75	< 4.00
Cc1cc2[nH]c3cccnc3c2c(C)c1O	< 4.00	5.35	4.60
Cc1cc2c(c(C)c1O)c1ncccc1n2C	< 4.00	4.88	4.36

More lines, now with the values ahead:

pKi (Adenosine receptor A1)	pKi (Adenosine receptor A3)	pKi (Adenosine receptor A2a)	SMILES
< 4.00	4.36	4.09	Cc1cc2c(c(C)c1O)c1ccncc1n2C
< 4.00	< 4.00	< 4.00	Cc1cc2c(c(C)c1O)c1cc[n+](C)cc1n2C
< 4.00	4.53	< 4.00	Cc1cc2[nH]c3c[n+](C)ccc3c2c(C)c1O
